Entries after “also recorded” stand apart in the source; their conditions may differ. Like-named read-outs stand apart in the source and are kept apart here.
How the values were obtained:
[1] = Blood-brain barrier penetration; settings: inferred from naloxone methiodide s.c. vs i.c.v. antagonism in mice
[2] = test system: male Kunming mice; assay: Acute hyperlocomotion test (open field); settings: 10 mg/kg s.c.; 150 min
[3] = target: human mu opioid receptor (CHOhMOP) (Homo sapiens, UniProt P35372); assay: cell-based
Chain of human mu opioid receptor (CHOhMOP) (P35372 whole entry): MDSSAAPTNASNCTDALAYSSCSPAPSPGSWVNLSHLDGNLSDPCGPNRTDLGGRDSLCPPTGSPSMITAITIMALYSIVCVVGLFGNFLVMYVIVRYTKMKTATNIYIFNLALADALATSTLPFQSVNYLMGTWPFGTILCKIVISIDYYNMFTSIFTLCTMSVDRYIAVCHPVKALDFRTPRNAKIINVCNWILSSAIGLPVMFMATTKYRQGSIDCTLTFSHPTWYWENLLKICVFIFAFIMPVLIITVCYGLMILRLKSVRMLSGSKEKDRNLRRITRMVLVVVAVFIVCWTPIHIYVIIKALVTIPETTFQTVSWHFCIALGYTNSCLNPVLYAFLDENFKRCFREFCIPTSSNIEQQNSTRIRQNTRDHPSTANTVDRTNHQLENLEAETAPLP

[4] = 15% mouse brain homogenate; cited from earlier work
[5] = test system: human sperm; assay: Human sperm motility in vitro; settings: 0.0001, 0.001, 0.01, 0.1, 1, or 10 µM, 4-h incubation, 37 °C, n = 5
[6] = test system: male Kunming mice; assay: Antinociceptive tolerance (tail-flick, 8 days); settings: 10 mg/kg s.c. once a day
[7] = test system: male Kunming mice; assay: Rotarod test; format: in vivo, mouse (Kunming); settings: 10 mg/kg s.c.; compared with saline
[8] = test system: male Kunming mice; assay: Conditioned place preference; format: in vivo, mouse (Kunming); settings: 10 mg/kg s.c.
Experimental: The conditioned place preference experiment is a classical model for evaluating dependence. The device consisted of three compartments. Two large compartments (20 × 20 × 20 cm) were connected by a narrower compartment (5 × 20 × 20 cm). The large compartments were visually and tactually distinct (white walls with rough floors and black walls with smooth floors). Before the unbiased experiment, the mice were allowed to move freely for 15 min to accommodate the apparatus. On the first day, the time the mice spent in each compartment was documented within 15 min. Over the next 3 days, the mice were subcutaneously administered drugs and were limited to one of the two large compartments. Approximately 6 h later, the mice were subcutaneously injected with saline and confined to the opposite compartment. On the fifth day, the mice moved freely for 15 min, and the time spent in the drug-associated preference compartment was recorded. The conditioned place preference score was calculated as: score = time spent in the drug-associated preference compartment on the fifth day − time spent in the same compartment on the first day.

[9] = test system: male Kunming mice; assay: Naloxone-induced withdrawal response (jumping); settings: 10 mg/kg s.c.; method: 20, 40, 60, 80, 100, 100, 100 mg/kg every 8 h, naloxone 10 mg/kg
[10] = target: human delta opioid receptor (CHOhDOP) (Homo sapiens, UniProt P41143); assay: Calcium mobilization assay, CHOhDOP cells
Chain of human delta opioid receptor (CHOhDOP) (P41143 whole entry): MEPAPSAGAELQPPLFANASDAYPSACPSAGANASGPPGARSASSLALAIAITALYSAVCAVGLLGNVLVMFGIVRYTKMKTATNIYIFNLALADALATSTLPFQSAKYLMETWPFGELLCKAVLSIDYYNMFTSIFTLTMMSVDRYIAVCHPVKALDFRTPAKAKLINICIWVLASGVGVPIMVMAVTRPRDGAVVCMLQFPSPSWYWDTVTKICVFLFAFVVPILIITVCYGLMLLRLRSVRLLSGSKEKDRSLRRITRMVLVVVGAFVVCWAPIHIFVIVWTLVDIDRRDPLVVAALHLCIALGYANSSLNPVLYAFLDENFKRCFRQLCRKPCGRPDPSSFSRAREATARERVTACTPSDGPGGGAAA

[11] = test system: male Kunming mice; assay: Gastrointestinal transit test (charcoal meal); format: in vivo, mouse (Kunming); settings: 10 mg/kg s.c.; for GIT%: 15 min before charcoal meal, 30 min, p < 0.05, lower = stronger inhibition
Experimental: The mice were fasted for 16 h with free access to water. Drugs were subcutaneously injected 15 min before the oral administration of a charcoal meal (an aqueous suspension of 5% charcoal and 10% gum arable). Thirty minutes after the oral administration, the animals were sacrificed. The farthest traveled distance by the charcoal meal (L1) and total length of the small intestine (L2) were measured. The GIT inhibition by analgesics was represented by GIT% = (L1/L2) × 100.

[12] = test system: male Kunming mice; assay: Acetic acid-induced writhing test; format: in vivo, mouse (Kunming); settings: 0.6% acetic acid i.p.
Experimental: An acetic acid-induced writhing test was performed to investigate visceral pain [43]. The increase in intensity of drug analgesia would be accompanied by a decrease in the writhing number. The mice were acclimatized in a transparent acrylic chamber (20 × 20 × 30 cm) for 15–20 min. First, the mice were subcutaneously injected with drugs. Five minutes later, they were intraperitoneally injected with 0.6% acetic acid solution. Within 5–15 min after injecting acetic acid, the number of writhes was recorded. Writhe was defined as a contraction of the abdominal muscles and stretching of the hind limbs.

[13] = test system: male Kunming mice; assay: Carrageenan-induced inflammatory pain; format: in vivo, mouse (Kunming); settings: s.c.
[14] = test system: male Kunming mice; assay: Formalin test; format: in vivo, mouse (Kunming); settings: phase I 0–5 min
Experimental: The formalin test was conducted to explore a characteristic biphasic pain response. The better the analgesic effect in mice, the shorter the average licking/biting/shaking paw time. The mice were acclimated in a transparent plexiglass chamber (20 × 20 × 30 cm) for 15–20 min. First, the mice received a subcutaneous injection of drugs. Five minutes later, 20 μL of 5% formalin was administered by intraplantar injection to the right hind paw. The mice were immediately placed back in the chamber. Simultaneously, the time spent licking, biting, and shaking the injected paw was recorded within 0–5 and 15–30 min.

[15] = test system: male Kunming mice; assay: Radiant heat tail-flick test; format: in vivo, mouse (Kunming); settings: for ED50: Mus musculus, sc
Description: The radiant heat tail-flick test has been widely used as an acute pain model to examine the effects of analgesics. The mice were gently stabilized by hand, and the dorsal surface of the tail, 3 cm from the distal end, was placed on a radiant heat source. The cutoff time was set to 10 s to avoid tissue damage. Radiant heat intensity was adapted to engender a basal latency within 3–5 s in naive mice. Tail-flick latency was defined as the time when the mouse flicked its tail away from the radiant heat source. The data of antinociceptive effects for each animal after treatment were calculated as a percentage of the maximal possible effect (MPE%): MPE (%) = 100 × [(postdrug response − baseline response)/(cutoff response − baseline response)]. The MPE% from each animal was converted to an area under the curve (AUC).
Statistical significance was set at p < 0.05.

[16] = target: MOR; settings: cited from earlier work
[17] = target: DOR; settings: cited from earlier work
[18] = cited from earlier work
[19] = test system: opioid receptors; settings: cited from earlier work
[20] = target: KOR; settings: cited from earlier work
Description: Table 2 The actions of agonists and antagonists at opioid receptors. | column: Ki^(KOR) (nM)

[21] = test system: mice; parameters: method as in 2 sources, ref 9 = [9]; PMID 9087409; doi:10.1038/386499a0; 9. Zadina J.E. Hackler L. Ge L.-J. Kastin A.J.J.N. A potent and selective endogenous agonist for the µ-opiate receptor Nature 1997 386 499 502 10.1038/386499a0 9087409 ||| ref 16 = [16]; PMID 31444977; doi:10.1111/bph.14848; 16. Xu B. Zhang M. Shi X. Zhang R. Chen D. Chen Y. Wang Z. Qiu Y. Zhang T. Xu K. The multifunctional peptide DN-9 produced peripherally acting antinociception in inflammatory and neuropathic pain via; settings: cited from earlier work

## C[C@@H](NC(=O)[C@@H](N)Cc1ccc(O)cc1)C(=O)NCC(=O)N[C@@H](Cc1ccccc1)C(N)=O [HAGD, H-Tyr-D-AIa-GIy-Phe-NH2]
[1]
  BBB permeability: poor BBB permeability; also recorded: poor ability of HAGD to penetrate the BBB into the CNS
[2]
  locomotor activity (in words): did not show an apparent effect on locomotion compared with saline
[3]
  Emax: 103 ± 1.58%
[3]; CHOhMOP, duplicate, repeated at least three times
  EC50: 81.7 nM
[4]
  half-life in brain homogenate: 259.73 ± 41.01 min
[5]
  sperm progressive motility (PR), HAGD (in words): did not produce significant changes in sperm PR; also recorded: did not have a significant negative effect on human sperm motility
[6]
  antinociceptive tolerance: non-tolerance antinociception for 8 consecutive days; also recorded: non-tolerance antinociception for eight consecutive days
[7]
  endurance time on rotating rod (in words): no significant difference in the endurance time
[8]
  conditioned place preference (in words): did not induce a place preference change; also recorded: substantial difference in the conditioned place preference scores between the HAGD and morphine groups
[9]
  withdrawal response: significant withdrawal response; also recorded: significant physical dependence
[10]
  EC50: 2630 nM
[10]; read-out: Emax ± S.E.M.
  Emax: 110 ± 7.21%
[11]
  gastrointestinal transit (in words): significant delay compared with saline
  GIT%: 44.83 ± 4.14%

## CN1CC[C@]23c4c5ccc(O)c4O[C@H]2[C@@H](O)C=C[C@H]3[C@H]1C5 [morphine]
[12]; 1 mg/kg s.c., 5–15 min, mean ± S.E.M., saline 34 ± 2.49
  average writhing number: 4.60 ± 2.43
[12]; s.c.
  inhibition of writhing response (in words): inhibited the writhing response
[2]
  locomotor activity (in words): enhanced the locomotor activity of mice and significantly increased the total distance traveled compared with saline or HAGD
[6]
  antinociceptive tolerance: decreased significantly from days 5 to 8; also recorded: produced antinociceptive tolerance in the tail-flick test
[13]; carrageenan-treated mice
  duration of anti-allodynic activity: 60 min
[13]; post-injection
  time of peak anti-allodynic effect: 30 min
[8]
  conditioned place preference (in words): significant place preference change
[8]; mean ± S.E.M.
  conditioned place preference score: 140.50 ± 43.96
[9]
  withdrawal response: significant withdrawal response; also recorded: significant physical dependence
[14]; 10 mg/kg s.c., 5% formalin intraplantar, mean ± S.E.M., p < 0.05, lower = better
  formalin test phase I response: 67.36 ± 3.93
[14]; s.c., morphine 10 mg/kg, phase II 15–30 min
  formalin-induced nociceptive responses, phases I and II (in words): attenuated nociceptive responses in both phases I and II
[15]; mice, equivalent of the mg/kg value, read-out: antinociceptive ED50 (molar equivalent)
  ED50: 16.3 µmol/kg
[15]; read-out: antinociceptive ED50
  ED50: 5.24 mg/kg
[15]; s.c., mice
  time of peak tail-flick latency: 30 min
[11]
  gastrointestinal transit (in words): significantly weakened the GIT and exhibited a greater inhibitory effect than HAGD
  GIT%: 24.11 ± 3.79%

## C=CC[N+]1(C)CC[C@]23c4c5ccc(O)c4O[C@H]2C(=O)CC[C@@]3(O)[C@H]1C5 (stereo partly shown) [naloxone methiodide]
[16]
  Ki: 28.9 nM
[17]
  Ki: 1010 nM
[18]; opioid receptor antagonist
  peripheral restriction: peripherally restricted
[19]
  Antagonist (receptors): MOR DOR KOR
[20]
  Ki: 204 nM

## Oc1ccc2c3c1O[C@H]1c4[nH]c5ccccc5c4C[C@@]4(O)[C@@H](C2)N(CC2CC2)CC[C@]314 [naltrindole]
[17]
  Ki: 0.02 nM
[19]
  Antagonist (receptors): DOR

## Oc1ccc2c3c1O[C@H]1c4[nH]c5c(c4C[C@@]4(O)[C@@H](C2)N(CC2CC2)CC[C@]314)C[C@@]1(O)[C@H]2Cc3ccc(O)c4c3[C@@]1(CCN2CC1CC1)[C@H]5O4 [nor-binaltorphimine]
[19]
  Antagonist (receptors): KOR

## COC(=O)/C=C/C(=O)N[C@@H]1CC[C@@]2(O)[C@H]3Cc4ccc(O)c5c4[C@@]2(CCN3CC2CC2)[C@H]1O5 [β-funaltrexamine]
[16]; binds covalently to MOR
  Ki: 0.3 nM
[19]
  Antagonist (receptors): The inhibition constant (Ki) represented the agonist or antagonist affinity. ^a Drug dosage was in mg/kg (or µmol/kg) for each animal (subcutaneously). ^b β-funaltrexamine binds covalently to MOR. MOR, mu opioid receptor; DOR, delta opioid receptor; KOR, kappa opioid receptor. nM, nmol/L; also recorded: MOR ^b

## Tyr1-Pro2-Phe3-Phe4-NH2 [endomorphin-2]
[16]
  selectivity for MOR: highly selective for MORs
[21]
  antinociception compared with morphine: more potent and prolonged antinociception than morphine in mice

## Tyr1-Pro2-Trp3-Phe4-NH2 [endomorphin-1]
[4]
  half-life in brain homogenate: 23.54 ± 0.25 min
[16]
  selectivity for MOR: highly selective for MORs
[21]
  antinociception compared with morphine: more potent and prolonged antinociception than morphine in mice
[18]; into the CNS as an analgesic
  BBB crossing: inability of endomorphin-1 to cross the blood–brain barrier (BBB)

— PMC9824695 (Molecules, 2023)
